From patent US6492339B1, “Compositions comprising D-chiro inositol and sulfonylureas and methods of treatment thereof” (Insmed, Incorporated, priority 2001, dated 2002)
“Also recorded” adds a separate entry of the source.

Key:
[1] = tested on: diabetic population; conditions: in combination with sulfonylurea or insulin; cited from earlier work
[2] = tested on: obese patients with type 2 diabetes mellitus; assay: Randomized, placebo-controlled, double-blind clinical trial of D-chiro-inositol in combination with a sulfonylurea (fasting biomarkers, HbA1c, lipids); format: in vivo, human; conditions: for difference to placebo in change of mean HbA1c level (%): baseline to endpoint
Procedure: The objective of this study was to assess the efficacy and safety of D-chiro-inositol when administered as a single oral dose of 1200 mg/day compared to placebo, each in combination with sulfonylureas, for 3 months. Patients were required to have been on sulfonylureas for 3 months prior to study entry without reaching their target dose or with a suboptimal response.
This multicenter, double-blind, parallel-group, placebo-controlled, randomized, fixed-dose clinical study was designed to evaluate 1200 mg/day D-chiro-inositol versus placebo in 270 obese patients with type 2 diabetes mellitus who had been receiving sulfonylureas for at least 3 months without reaching their target or with suboptimal response.
(§1) The study involved 5 scheduled visits. The first visit was the screening visit, followed by a baseline visit up to 2 weeks later. Patients were randomized at the baseline visit, half to 1200 mg/day D-chiro-inositol and half to placebo. and subsequently began 13 weeks of treatment with blinded study medication. There were 3 visits for safety and efficacy assessments, at 4, 8, and 13 weeks after beginning treatment. The 13week visit was the final visit. Patients arrived at the investigational site in a fasted state for all visits. Assessments were to be done at the same time of day at each visit by the same responsible personnel. Medication was taken once a day at the same time of morning, except on visit days, on which the dose was delayed until just after fasting blood samples had been collected.
Patients receiving D-chiro-inositol received four 300 mg capsules once daily for a total daily dose of 1200 mg; placebo patients took 4 placebo capsules once daily. Doses were taken orally, generally in the mornings. Patients were instructed to take their dose in the morning at the same time each day, except on visit days. On visit days, dosing was to be done at the clinic. No instructions were given regarding when to take medication in relation to meals on non-visit days.
(§2) Biomarkers: A meal tolerance test (MTT) was performed at baseline (Visit 2) and the final visit (Visit 5). In addition, blood was drawn at every visit for assessment of fasting glucose and insulin, HbA1c, C-peptide, fructosamine, FFA, triglycerides, total cholesterol, HDL, VLDL, LDL, and Apo-B levels.
Primary Efficacy Variable(s) and Analyses. The primary analysis was based on the change from baseline to endpoint in HbA1c level using the modified ITT and evaluable study populations. The analysis was done using an analysis of covariance (ANCOVA) model with treatment group and the baseline HbA1c value as predictors.
Secondary Efficacy Variable(s) and Analyses. Since all secondary efficacy parameters were continuous, they were analyzed in the same manner as described above for the primary efficacy parameter, with treatment group and baseline values for the relevant parameter used as predictors.

[3] = tested on: obese patients with type 2 diabetes mellitus; assay: Meal tolerance test (MTT) at baseline and final visit of the clinical trial; format: in vivo, human
Procedure: Changes in area-under-the-curve (AUC) and 120-minute insulin and glucose levels during the meal tolerance test (MTT).
as §1, §2
AUC (and 120-minute) insulin and glucose levels during the MTT;.
FIGS. 1A, 1B and 2 illustrate the observation that D-chiro-inositol (DCI) prolongs pancreatic production of insulin in patients receiving sulfonylurea compounds. […] At baseline, a time when the subjects had been poorly managed on SU compounds alone, both the DCI group and the SU group responded similarly in their ability to produce insulin in response to the meal challenge. […] Without wishing to be bound by theory, the inventors contemplate that this progression is mediated by pancreatic failure and thus reduced insulin secretion. Therefore the amelioration of this effect by administration of DCI benefits the subject by the aforementioned medical improvements, but also will prevent the progression of diabetes by preventing pancreatic failure and/or decreased insulin production.

[4] = tested on: type 2 diabetic patients; assay: Subgroup analysis of lipid lowering drug/D-chiro-inositol effects on LDL cholesterol; format: in vivo, human; conditions: type 2 diabetic patients on sulfonylurea, with or without lipid lowering medications
Procedure: Due to the observation of lipid lowering effects seen in the DCI group, the clinical trial described in EXAMPLE 1 was further analyzed for synergistic interactions between D-chiro-inositol and lipid lowering medications. Certain patients within the trial were treated according to standard of care with HMC-CoA inhibitors (LIPITOR®, LESCOL®, ZOCOR®, MEVACOR®, PRAVACHOL®), gemfibrozil, or a combination of HMC-CoA and gemfibrozil. No inclusion or exclusion criteria were established for the efficacy of the lipid lowering drug efficacy in the patient population. As stated supra, these patients were being sub optimally treated with a sulfonylurea prior to beginning the clinical trial.

[5] = tested on: streptozotocin-treated rats, obese Zucker rats, or normal rats given a glucose load; conditions: obese Zucker or glucose-loaded normal rats; cited from earlier work
[6] = tested on: obese insulin-resistant rhesus monkeys; conditions: oral or intravenous route; cited from earlier work
[7] = evaluable patients with fasting plasma glucose ≦180 mg/dL, 1200 mg/day oral with sulfonylureas
[8] = evaluable population, 1200 mg/day oral with sulfonylureas, 13 weeks
[9] = patients with fasting plasma glucose ≦180 mg/dL, 1200 mg/day oral with sulfonylureas

In the case of `CCc1ccc(CCOc2ccc(CC3SC(=O)NC3=O)cc2)nc1` (stereo not shown) [pioglitazone], the “rate of mild to moderate hypoglycemia” value [1] is given as 1-2%.

For `OC1C(O)C(O)C(O)C(O)C1O` [D-chiro-inositol], the “Mean change (in %) in HbA1c levels from baseline to endpoint” value ([2]; all subjects using LOCF at endpoint, 1200 mg/day oral with sulfonylureas, 13 weeks) was −0.16%, the “decrease in mean HbA1c level (%) from baseline to endpoint” value ([2]; evaluable patients with FPG≦180 mg/dL, value printed as size of the decrease) was 0.53% and the “Apo-B, mean change” value [2, 7] was -4.00 mg/dL. For the same molecule, the “difference to placebo in change of mean HbA1c level (%)” value ([2]; evaluable population) was 0.36%, the “FFA, mean change at endpoint” value [2, 8] was −0.07 mEq/L and the “decrease in mean HbA1c levels (%) from baseline to endpoint” value ([2]; evaluable population, value printed as size of the decrease) was 0.16%. For the same molecule, the “difference to placebo in change of mean HbA1c level (%)” value ([2]; patients with FPG≦180 mg/dL) was 0.80%, the “Mean change (in %) in HbA1c levels to endpoint” value ([2]; patients with fasting plasma glucose ≦180 mg/dL, LOCF at endpoint, 1200 mg/day oral with sulfonylureas) was −0.53% and the “Mean change (in %) in HbA1c levels to Week 4” value [2, 9] was −0.47%. For the same molecule, the “Mean change (in %) in HbA1c levels to Week 8” value [2, 9] was −0.57%, the “Change in insulin AUC from baseline to final (FIG. 2)” value ([3]; DCI+SU, scatter diagram of individual subjects, median, listed as DCI) was “no significant negative scatter; also recorded: slightly increased the insulin AUC” and the “insulin response after a meal tolerance test, baseline versus final (FIGS. 1A, 1B)” value ([3]; DCI+SU, subjects with fasting blood glucose ≤180 mg/dl, three month timepoint, listed as DCI) was “maintained this response after the 13 week course of treatment; also recorded: maintains a constant insulin response over the testing period”. The “AUC insulin, mean change” value [3, 7] was 1070.8 μU/mL · hr, the “120-min. insulin, mean change at endpoint” value [3, 8] was 3.50 μU/mL and the “AUC insulin, mean change at endpoint” value [3, 8] was 484.4 μU/mL · hr. For the same molecule, the “effect on LDL cholesterol (FIG. 3)” value [4] was “significantly reduced the increase of LDL cholesterol”, the glycemic control [5] was “significantly improved glycemic control” and the “disappearance rate of plasma glucose and insulin” value [6] was “significantly increased the disappearance rate of both plasma glucose and insulin”.
